Key:
[1] = system: connective tissue growth factor (CTGF) mRNA; assay: TGF-β-induced mRNA expression of connective tissue growth factor (CTGF) in human mesangial cells; format: cell-based; details: 0.001-10 μM with forskolin 1 μM and TGF-β 3 ng/mL, 6 h
Procedure: (§1) Human mesangial cells were purchased from DS Pharma Biomedical (US). Compound A was obtained from Takeda GmbH, Konstanz, Germany. Forskolin and dimethyl sulfoxide (DMSO) were purchased from Wako Pure Chemical Industries, Ltd (Japan). Recombinant human TGF-β was purchased from R&D systems (USA).
On day 0, human mesangial cells were seeded at a cell density of 2×10^5 cells/well in CSC complete medium (Cell Systems, USA) on type 1 collagen-coated 24-well plate (AGC TECHNO GLASS Co. Ltd., Japan) in an atmosphere of 95% air and 5% CO2 at 37° C. On day 1, the cells were serum starved with CMC medium which is not containing serum and growth factors. On day 2, Compound A at final concentrations of 0.001, 0.01, 0.1, 1 and 10 μM or DMSO (control) was added to the culture medium. […] For the measurement of mRNA levels of type 1 collagen α1 chain and fibronectin, total RNA isolated at 24 hours after forskolin/TGF-β stimulation was used. mRNA expression levels were measured by quantitative real-time RT-PCR methods with TaqMan gene expression master mix and ABI PRISM 9700 (Life Technologies, USA) with target mRNA specific primer and probe sets [Human connective tissue growth factor (Hs1026927_g1); Human plasminogen activator inhibitor-1 (Hs00167155_m1); Human type 1 collagenal chain (Hs00164004_m1); Human fibronectin (HS00365052_m1); Humanglyceraldehyde 3-phosphate dehydrogenase (HS2758991_g1)]. […]

female db/db mice = assay: HbA1c, 4 weeks treatment in female db/db mice; format: in vivo; details: 28 days, vehicle 9.06%
Procedure: Female db/db mice were purchased from Taconic (Lille Skensved, Denmark) at 5-6 weeks of age and were maintained under standard conditions (5 animals/cage; 12 h light-dark cycle; room temperature of 22±2° C.; relative humidity of 60±15%). All mice had free access to water and standard chow (Provimi Kliba, Kaiseraugst, Switzerland). Four days upon arrival animals were randomized based on body weight and levels of glycated hemoglobin 1c (HbA1c). At 7 weeks of age, animals were treated daily by oral gavage with vehicle (4% methylcellulose) or with Compound A (composed in aqueous 4% methylcellulose) using doses of 1, 3 and 10 mg/kg s.i.d. (doses related to free base). The required dose was applied in a volume of 10 ml/kg body weight. Each dose group consisted of 10 animals. At the end of the treatment period plasma samples were isolated for determination of HbA1c levels. All experimental procedures were conducted according to the German Animal Protection Law.
HbA1c was analyzed from tail-tip-blood (HbA1c determination before treatment) as well as from blood collected from the retro-orbital venous plexus (HbA1c determination after 4 weeks treatment) using the Hemoglobin A1c Test (Siemens, Bad Nauheim, Germany).
Values are presented as means ±SEM. Statistical differences were determined using one-way-ANOVA followed by a post-hoc analysis with Dunnet's correction (GraphPad Prism).
Definition of significance: n.s.=not significant (p>0.05) • *, **, ***=p<0.05, <0.01, <0.001

human mesangial cells = assay: Intracellular cAMP level in human mesangial cells (AlphaScreen cAMP functional assay); format: cell-based; details: co-treatment with forskolin 1 μM
Procedure: as §1
On day 0, human mesangial cells were seeded at a cell density of 2×10^5 cells/well in CSC complete medium (Cell Systems, USA) on type 1 collagen-coated 24-well plate (AGC TECHNO GLASS Co. Ltd., Japan) in an atmosphere of 95% air and 5% CO2 at 37° C. On day 1, the cells were serum starved with CSC medium which is not containing serum and growth factors. On day 2, Compound A at final concentrations of 0.001, 0.01, 0.1, 1 and 10 μM or DMSO (control) was added to the culture medium. […]
For evaluation of the effects of Compound A on intracellular cAMP level, statistical differences between DMSO-treatment and Compound A treatment groups were analyzed with one-tailed Williams' test. For the evaluation of the effects of Compound A on mRNA expression levels, statistical differences between forskolin/TGF-β-treatment and Compound A treatment groups were analyzed with one-tailed Williams' test. To confirm the mRNA induction by TGF-β, mRNA expression levels between untreated and TGF-β-treated group were analyzed by Students t-test. […]

SMILES: CCOc1cc2c(cc1OC)C(c1ccc(=O)n(C)c1)=N[C@@H]1CC[C@@H](O)C[C@H]21 [Compound A, 5-((2R,4aR,10bR)-9-Ethoxy-2-hydroxy-8-methoxy-1,2,3,4,4a,10b-hexahydro-phenanthridin-6-yl)1-methyl-1H-pyridin-2-one]
- effect on TGF-β-induced mRNA expression of CTGF [1]: further suppressed by the treatment with Compound A in a concentration-dependent manner
- mean HbA1c (female db/db mice; 1 mg/kg oral s.i.d.): 7.27%
- mean HbA1c (female db/db mice; 3 mg/kg oral s.i.d.): 7.06%
- mean HbA1c (female db/db mice; 10 mg/kg oral s.i.d.): 6.16%
- effect on intracellular cAMP accumulation (human mesangial cells; 0.001-10 μM): further enhanced intracellular cAMP accumulation in a concentration dependent manner
- concentration at which the significant effect on intracellular cAMP accumulation was observed (human mesangial cells): ≥ 0.1 µM
